Assay results taken from paper PMC10725991, “Kaempferol is a novel antiviral agent against channel catfish virus infection through blocking viral attachment and penetration in vitro” (Frontiers in Veterinary Science, 2023).

Experiments:
[1] = tested on: CCV ORF 39 and ORF 59 proteins in CCO cells; test: Western blot of CCV ORF 39 and ORF 59 proteins; assay type: cell-based, Channel catfish virus (CCV, Ictalurid herpesvirus 1)
Method: To test the anti-CCV effect of tested compounds in the preliminary screening, CCO cells were seeded in 24-well plates and cultured to reach approximately 90% confluence in each well at 28°C. Subsequently, the cells were infected with the CCV at 10^3 TCID50/ml at 28°C for 1 h. After that, the cell culture medium was replaced using an isopycnic DMEM medium containing the maximum safe concentration of indicated compounds. CCV-infected cells treated with DMSO served as a negative control, whereas CCV-infected cells treated with acyclovir (2.5 μg/mL) served as a positive control ([33]). After 36 h treatment, cell lysates were collected to test the CCV gene expression by the RT-qPCR, and the percentage inhibition of CCV infection by individual compound was calculated. According to the percentage inhibition results, we further detected the antiviral activity of kaempferol at maximum safe concentration by viral cytopathic effects (CPE) and western blot analysis. […]
For the western blot assay, firstly, cells were lysed with cell lysis buffer (Beyotime, China), and then the concentrations of protein samples collected from cell lysates protein were determined using the Enhanced BCA Protein Assay Kit (Beyotime, China). […] Finally, the signals were detected using an ECL kit (Beyotime, China) according to the manufacturer’s instructions.

CCV in CCO cells = test: Virus penetration assay; assay type: cell-based, Channel catfish virus (CCV, Ictalurid herpesvirus 1); conditions: kaempferol 15 μg/mL, 24 h
Method: Confluent CCO cells in 24-well plates were prechilled at 4°C, and then infected with CCV at 4°C for 1 h. After triple washing with pre-cooled PBS, the cells were treated with kaempferol (15 μg/mL) or medium at 28°C for 4 h. The compound dilutions were aspirated and the cells were rinsed with citrate buffer (pH 3.0) in order to inactivate and remove not penetrated virus. After incubated at 28°C for 24 h, the cells were collected for subsequent experiments, including RT-qPCR and viral titer.
Measurement of viral titer was described previously ([5]). In brief, CCO cells were cultured in 96-well plates, and they were infected with 10-fold serially diluted samples that were collected previously. At 72 h post-infection, the cells were directly observed under an inverted microscope. […]
For RT-qPCR, the total RNA was isolated from CCV-infected cells using RnaExTM (Trizol)^a reagent (GENERAY, China), and reversed transcribed applying a HiScript III RT SuperMix with gDNA wiper (Vazyme, China) following the manufacturer’s instructions. Quantitative PCR was performed with a LightCycler 96 Real-Time PCR Detection System (Roche, USA) using ChamQ Universal SYBR qPCR Master Mix (Vazyme, China) with the following cycle conditions: 95°C for 30 s, followed by 40 cycles of 95°C for 10 s and 60°C for 30 s. […] Fold changes of the selected gene vs 18 s (internal reference) were calculated by the 2^−△△Ct method. […]

O=c1c(O)c(-c2ccc(O)cc2)oc2cc(O)cc(O)c12 [Kaempferol]
viral protein (CCV ORF 39, ORF 59) level, western blot ([1]; kaempferol 10 μg/mL to 15 μg/mL, 24 and 36 h): nearly undetectable
expression of viral proteins (CCV ORF 39, ORF 59), western blot ([1]; maximum safe concentration (47.53 μg/mL), 36 h post-infection): suppressed the expression of viral proteins
down-regulation of viral internalization (CCV ORF 39/ORF 59, RT-qPCR) vs CCV control (CCV in CCO cells; 4 h at 28°C): more than 50%
production of intracellular virus (virus titer), penetration assay (CCV in CCO cells): significantly reduced
